Assays:
Test in all cases: SelectScreen ZLYTE
Type in all cases: biochemical
Conditions in all cases: INX-0315 at 100nM
PRKCD (PKC delta) = molecular target: T1, PRKCD (PKC delta) (Homo sapiens, UniProt Q05655)
T1 construct: purchased Thermo Fisher Scientific SelectScreen (plus Nanosyn / Reaction Biology for CDK/cyclin lines)
Method in brief: (§1)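 Activity and binding formats were run as established by the profiling service; INX-315 entered at one concentration (100 nmol/L, 1% DMSO) before titration over a 1 µmol/L–0.0495 nmol/L range in ten steps.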

DCAMKL1 (DCLK1) = molecular target: T2, DCAMKL1 (DCLK1) (Homo sapiens, UniProt O15075)
T2 construct: purchased Thermo Fisher Scientific SelectScreen (plus Nanosyn / Reaction Biology for CDK/cyclin lines)
Method in brief: as §1

DYRK1B = molecular target: T3, DYRK1B (Homo sapiens, UniProt Q9Y463)
T3 construct: purchased Thermo Fisher Scientific SelectScreen (plus Nanosyn / Reaction Biology for CDK/cyclin lines)
Method in brief: as §1

PTK2B (FAK2) = molecular target: T4, PTK2B (FAK2) (Homo sapiens, UniProt Q14289)
T4 construct: purchased Thermo Fisher Scientific SelectScreen (plus Nanosyn / Reaction Biology for CDK/cyclin lines)
Method in brief: as §1

RET A883F = molecular target: T5, RET A883F (Homo sapiens, UniProt P07949, A883F)
T5 construct: purchased Thermo Fisher Scientific SelectScreen (plus Nanosyn / Reaction Biology for CDK/cyclin lines)
Method in brief: as §1

PRKCI (PKC iota) = molecular target: T6, PRKCI (PKC iota) (Homo sapiens, UniProt P41743)
T6 construct: purchased Thermo Fisher Scientific SelectScreen (plus Nanosyn / Reaction Biology for CDK/cyclin lines)
Method in brief: as §1

MAPK7 (ERK5) = molecular target: T7, MAPK7 (ERK5) (Homo sapiens, UniProt Q13164)
T7 construct: purchased Thermo Fisher Scientific SelectScreen (plus Nanosyn / Reaction Biology for CDK/cyclin lines)
T7 sequence (Q13164 whole entry): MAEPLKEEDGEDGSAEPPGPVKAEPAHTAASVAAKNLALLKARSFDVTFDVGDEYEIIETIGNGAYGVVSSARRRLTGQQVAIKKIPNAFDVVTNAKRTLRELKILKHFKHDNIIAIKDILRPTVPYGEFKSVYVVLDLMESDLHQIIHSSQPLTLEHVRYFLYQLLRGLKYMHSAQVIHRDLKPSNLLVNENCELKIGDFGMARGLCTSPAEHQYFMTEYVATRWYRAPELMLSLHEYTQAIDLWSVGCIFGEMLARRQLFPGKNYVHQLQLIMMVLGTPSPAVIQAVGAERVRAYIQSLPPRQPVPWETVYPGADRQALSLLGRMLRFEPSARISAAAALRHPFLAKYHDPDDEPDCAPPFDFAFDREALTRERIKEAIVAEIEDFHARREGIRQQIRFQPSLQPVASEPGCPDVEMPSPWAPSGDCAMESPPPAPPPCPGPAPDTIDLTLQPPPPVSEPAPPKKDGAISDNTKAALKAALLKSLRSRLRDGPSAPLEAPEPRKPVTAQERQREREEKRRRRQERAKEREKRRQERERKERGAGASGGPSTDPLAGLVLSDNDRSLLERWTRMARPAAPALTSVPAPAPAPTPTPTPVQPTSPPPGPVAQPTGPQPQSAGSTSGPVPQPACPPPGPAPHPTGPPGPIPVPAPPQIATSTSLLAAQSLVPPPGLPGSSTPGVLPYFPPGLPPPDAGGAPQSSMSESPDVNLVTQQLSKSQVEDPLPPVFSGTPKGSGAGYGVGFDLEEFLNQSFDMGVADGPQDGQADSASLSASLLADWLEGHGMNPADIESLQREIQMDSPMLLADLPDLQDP
Method in brief: as §1

LCK = molecular target: T8, LCK (Homo sapiens, UniProt P06239)
T8 construct: purchased Thermo Fisher Scientific SelectScreen (plus Nanosyn / Reaction Biology for CDK/cyclin lines)
Method in brief: as §1

CDK18/cyclin Y = molecular target: T9, CDK18/cyclin Y (Homo sapiens, UniProt Q07002)
T9 construct: purchased Thermo Fisher Scientific SelectScreen (plus Nanosyn / Reaction Biology for CDK/cyclin lines)
Method in brief: as §1

CSNK1E (CK1 epsilon) = molecular target: T10, CSNK1E (CK1 epsilon) (Homo sapiens, UniProt P49674)
T10 construct: purchased Thermo Fisher Scientific SelectScreen (plus Nanosyn / Reaction Biology for CDK/cyclin lines)
Method in brief: as §1

CHEK1 (CHK1) = molecular target: T11, CHEK1 (CHK1) (Homo sapiens, UniProt O14757)
T11 construct: purchased Thermo Fisher Scientific SelectScreen (plus Nanosyn / Reaction Biology for CDK/cyclin lines)
T11 sequence (O14757 whole entry): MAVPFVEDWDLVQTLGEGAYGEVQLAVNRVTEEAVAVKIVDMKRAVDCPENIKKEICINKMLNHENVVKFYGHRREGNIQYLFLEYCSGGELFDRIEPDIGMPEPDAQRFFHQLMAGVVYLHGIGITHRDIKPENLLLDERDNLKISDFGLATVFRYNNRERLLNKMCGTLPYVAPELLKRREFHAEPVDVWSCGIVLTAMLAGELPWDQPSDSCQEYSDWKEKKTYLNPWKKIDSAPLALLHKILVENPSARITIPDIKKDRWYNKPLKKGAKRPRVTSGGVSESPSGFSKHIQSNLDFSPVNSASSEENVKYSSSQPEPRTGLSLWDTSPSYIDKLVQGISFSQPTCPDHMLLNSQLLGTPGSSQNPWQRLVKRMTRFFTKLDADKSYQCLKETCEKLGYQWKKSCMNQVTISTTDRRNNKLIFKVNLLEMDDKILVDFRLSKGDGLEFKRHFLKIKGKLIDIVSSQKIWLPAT
Method in brief: as §1

MYLK2 (skMLCK) = molecular target: T12, MYLK2 (skMLCK) (Homo sapiens, UniProt Q9H1R3)
T12 construct: purchased Thermo Fisher Scientific SelectScreen (plus Nanosyn / Reaction Biology for CDK/cyclin lines)
Method in brief: as §1

NEK1 = molecular target: T13, NEK1 (Homo sapiens, UniProt Q96PY6)
T13 construct: purchased Thermo Fisher Scientific SelectScreen (plus Nanosyn / Reaction Biology for CDK/cyclin lines)
Method in brief: as §1

IKBKE (IKK epsilon) = molecular target: T14, IKBKE (IKK epsilon) (Homo sapiens, UniProt Q14164)
T14 construct: purchased Thermo Fisher Scientific SelectScreen (plus Nanosyn / Reaction Biology for CDK/cyclin lines)
Method in brief: as §1

SBK1 = molecular target: T15, SBK1 (Homo sapiens, UniProt Q52WX2)
T15 construct: purchased Thermo Fisher Scientific SelectScreen (plus Nanosyn / Reaction Biology for CDK/cyclin lines)
Method in brief: as §1

MET (cMet) = molecular target: T16, MET (cMet) (Homo sapiens, UniProt P08581)
T16 construct: purchased Thermo Fisher Scientific SelectScreen (plus Nanosyn / Reaction Biology for CDK/cyclin lines)
Method in brief: as §1

SNF1LK2 = molecular target: T17, SNF1LK2 (Homo sapiens, UniProt Q9H0K1)
T17 construct: purchased Thermo Fisher Scientific SelectScreen (plus Nanosyn / Reaction Biology for CDK/cyclin lines)
Method in brief: as §1

PTK2 (FAK) = molecular target: T18, PTK2 (FAK) (Homo sapiens, UniProt Q05397)
T18 construct: purchased Thermo Fisher Scientific SelectScreen (plus Nanosyn / Reaction Biology for CDK/cyclin lines)
Method in brief: as §1

GRK7 = molecular target: T19, GRK7 (Homo sapiens, UniProt Q8WTQ7)
T19 construct: purchased Thermo Fisher Scientific SelectScreen (plus Nanosyn / Reaction Biology for CDK/cyclin lines)
Method in brief: as §1

ADRBK1 (GRK2) = molecular target: T20, ADRBK1 (GRK2) (Homo sapiens, UniProt P25098)
T20 construct: purchased Thermo Fisher Scientific SelectScreen (plus Nanosyn / Reaction Biology for CDK/cyclin lines)
Method in brief: as §1

AMPK A2/B1/G1 = molecular target: T21, AMPK A2/B1/G1 (Homo sapiens, UniProt P54646)
T21 construct: purchased Thermo Fisher Scientific SelectScreen (plus Nanosyn / Reaction Biology for CDK/cyclin lines)
Method in brief: as §1

CDK5/p25 = molecular target: T22, CDK5/p25 (Homo sapiens, UniProt Q00535)
T22 construct: purchased BPS 40105
Method in brief: as §1

KDR (VEGFR2) = molecular target: T23, KDR (VEGFR2) (Homo sapiens, UniProt P35968)
T23 construct: purchased Thermo Fisher Scientific SelectScreen (plus Nanosyn / Reaction Biology for CDK/cyclin lines)
T23 sequence (P35968 20-1356): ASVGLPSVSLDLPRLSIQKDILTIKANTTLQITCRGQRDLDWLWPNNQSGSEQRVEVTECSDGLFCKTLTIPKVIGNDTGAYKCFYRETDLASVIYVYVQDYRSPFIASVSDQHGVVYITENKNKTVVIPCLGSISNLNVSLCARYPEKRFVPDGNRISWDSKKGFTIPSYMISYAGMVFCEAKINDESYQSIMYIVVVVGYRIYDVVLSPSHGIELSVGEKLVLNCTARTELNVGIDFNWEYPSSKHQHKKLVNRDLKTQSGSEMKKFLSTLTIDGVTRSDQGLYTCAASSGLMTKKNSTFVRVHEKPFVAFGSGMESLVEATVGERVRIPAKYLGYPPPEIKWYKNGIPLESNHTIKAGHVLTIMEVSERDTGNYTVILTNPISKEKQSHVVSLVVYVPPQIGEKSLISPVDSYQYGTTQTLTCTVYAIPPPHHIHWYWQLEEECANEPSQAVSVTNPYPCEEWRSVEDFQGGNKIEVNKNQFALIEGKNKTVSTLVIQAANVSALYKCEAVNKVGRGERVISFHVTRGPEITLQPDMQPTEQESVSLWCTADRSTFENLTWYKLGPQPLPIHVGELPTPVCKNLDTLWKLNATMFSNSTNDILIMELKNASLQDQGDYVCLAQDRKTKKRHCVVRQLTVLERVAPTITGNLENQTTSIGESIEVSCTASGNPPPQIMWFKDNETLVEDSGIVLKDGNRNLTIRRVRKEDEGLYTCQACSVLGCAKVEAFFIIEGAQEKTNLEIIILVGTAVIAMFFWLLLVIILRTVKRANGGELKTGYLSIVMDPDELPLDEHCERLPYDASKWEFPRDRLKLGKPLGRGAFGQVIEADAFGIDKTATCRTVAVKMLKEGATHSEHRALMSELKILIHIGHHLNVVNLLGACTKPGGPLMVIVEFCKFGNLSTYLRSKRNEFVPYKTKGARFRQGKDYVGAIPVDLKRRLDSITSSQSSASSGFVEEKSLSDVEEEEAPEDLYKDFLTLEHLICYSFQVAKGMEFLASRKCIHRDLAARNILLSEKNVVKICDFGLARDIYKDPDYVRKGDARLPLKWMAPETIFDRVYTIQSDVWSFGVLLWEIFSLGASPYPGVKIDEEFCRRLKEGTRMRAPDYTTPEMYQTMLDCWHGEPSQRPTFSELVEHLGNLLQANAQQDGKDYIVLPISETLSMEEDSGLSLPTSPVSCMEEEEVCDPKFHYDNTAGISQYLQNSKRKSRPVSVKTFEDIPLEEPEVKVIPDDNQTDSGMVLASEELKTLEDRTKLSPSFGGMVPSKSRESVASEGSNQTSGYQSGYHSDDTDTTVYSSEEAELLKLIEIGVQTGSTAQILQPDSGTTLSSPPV
Method in brief: as §1

MAPKAPK3 = molecular target: T24, MAPKAPK3 (Homo sapiens, UniProt Q16644)
T24 construct: purchased Thermo Fisher Scientific SelectScreen (plus Nanosyn / Reaction Biology for CDK/cyclin lines)
Method in brief: as §1

EEF2K = molecular target: T25, EEF2K (Homo sapiens, UniProt O00418)
T25 construct: purchased Thermo Fisher Scientific SelectScreen (plus Nanosyn / Reaction Biology for CDK/cyclin lines)
T25 sequence (O00418 whole entry): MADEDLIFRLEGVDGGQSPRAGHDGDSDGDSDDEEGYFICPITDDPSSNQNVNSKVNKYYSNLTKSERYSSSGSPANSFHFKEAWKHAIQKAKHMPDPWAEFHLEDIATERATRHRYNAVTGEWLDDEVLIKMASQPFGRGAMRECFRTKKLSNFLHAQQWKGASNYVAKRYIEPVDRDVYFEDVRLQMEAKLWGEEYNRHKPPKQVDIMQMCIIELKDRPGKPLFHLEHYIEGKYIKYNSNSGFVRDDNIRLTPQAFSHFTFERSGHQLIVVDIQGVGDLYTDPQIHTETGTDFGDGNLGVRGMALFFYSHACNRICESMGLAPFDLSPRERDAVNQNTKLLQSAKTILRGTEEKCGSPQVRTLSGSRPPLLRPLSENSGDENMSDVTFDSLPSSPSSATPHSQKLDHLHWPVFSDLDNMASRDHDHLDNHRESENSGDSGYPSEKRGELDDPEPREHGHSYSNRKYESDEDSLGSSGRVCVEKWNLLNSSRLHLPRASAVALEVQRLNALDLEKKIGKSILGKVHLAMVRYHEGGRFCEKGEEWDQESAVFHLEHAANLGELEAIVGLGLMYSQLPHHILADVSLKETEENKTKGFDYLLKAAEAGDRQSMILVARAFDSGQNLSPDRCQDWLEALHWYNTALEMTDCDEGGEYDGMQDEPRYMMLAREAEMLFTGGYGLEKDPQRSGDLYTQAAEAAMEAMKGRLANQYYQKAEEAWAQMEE
Method in brief: as §1

TXK = molecular target: T26, TXK (Homo sapiens, UniProt P42681)
T26 construct: purchased Thermo Fisher Scientific SelectScreen (plus Nanosyn / Reaction Biology for CDK/cyclin lines)
Method in brief: as §1

EPHA8 = molecular target: T27, EPHA8 (Homo sapiens, UniProt P29322)
T27 construct: purchased Thermo Fisher Scientific SelectScreen (plus Nanosyn / Reaction Biology for CDK/cyclin lines)
T27 sequence (P29322 28-1005): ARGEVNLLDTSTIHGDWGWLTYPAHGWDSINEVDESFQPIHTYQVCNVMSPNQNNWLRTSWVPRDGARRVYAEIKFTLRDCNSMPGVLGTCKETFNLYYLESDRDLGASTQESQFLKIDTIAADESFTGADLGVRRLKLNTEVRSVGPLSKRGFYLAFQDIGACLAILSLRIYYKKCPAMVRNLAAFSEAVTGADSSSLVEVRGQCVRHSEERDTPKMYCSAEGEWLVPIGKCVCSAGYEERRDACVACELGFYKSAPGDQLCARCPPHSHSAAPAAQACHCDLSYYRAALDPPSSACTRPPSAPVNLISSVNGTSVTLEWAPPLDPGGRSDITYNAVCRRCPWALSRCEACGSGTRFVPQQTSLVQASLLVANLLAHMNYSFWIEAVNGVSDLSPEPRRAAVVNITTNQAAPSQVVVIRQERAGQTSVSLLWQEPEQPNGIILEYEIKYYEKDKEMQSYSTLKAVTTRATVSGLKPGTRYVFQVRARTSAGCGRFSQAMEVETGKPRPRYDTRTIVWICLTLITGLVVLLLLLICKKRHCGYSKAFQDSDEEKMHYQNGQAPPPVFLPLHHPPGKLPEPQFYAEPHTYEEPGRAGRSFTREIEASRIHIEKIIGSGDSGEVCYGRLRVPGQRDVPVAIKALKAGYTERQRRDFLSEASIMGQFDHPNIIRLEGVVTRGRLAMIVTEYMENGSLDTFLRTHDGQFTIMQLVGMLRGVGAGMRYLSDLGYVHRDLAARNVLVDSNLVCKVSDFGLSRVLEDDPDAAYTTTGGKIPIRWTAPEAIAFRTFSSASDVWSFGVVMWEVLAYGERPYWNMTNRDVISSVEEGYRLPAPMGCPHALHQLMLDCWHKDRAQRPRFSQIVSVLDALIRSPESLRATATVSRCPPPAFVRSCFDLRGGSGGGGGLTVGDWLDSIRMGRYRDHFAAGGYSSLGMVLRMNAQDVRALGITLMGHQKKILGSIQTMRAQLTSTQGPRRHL
Method in brief: as §1

NIM1K = molecular target: T28, NIM1K (Homo sapiens, UniProt Q8IY84)
T28 construct: purchased Thermo Fisher Scientific SelectScreen (plus Nanosyn / Reaction Biology for CDK/cyclin lines)
Method in brief: as §1

CDK5/p35 = molecular target: T29, CDK5/p35 (Homo sapiens, UniProt Q00535)
T29 construct: purchased Thermo Fisher Scientific SelectScreen (plus Nanosyn / Reaction Biology for CDK/cyclin lines)
Method in brief: as §1

PLK2 = molecular target: T30, PLK2 (Homo sapiens, UniProt Q9NYY3)
T30 construct: purchased Thermo Fisher Scientific SelectScreen (plus Nanosyn / Reaction Biology for CDK/cyclin lines)
T30 sequence (Q9NYY3 whole entry): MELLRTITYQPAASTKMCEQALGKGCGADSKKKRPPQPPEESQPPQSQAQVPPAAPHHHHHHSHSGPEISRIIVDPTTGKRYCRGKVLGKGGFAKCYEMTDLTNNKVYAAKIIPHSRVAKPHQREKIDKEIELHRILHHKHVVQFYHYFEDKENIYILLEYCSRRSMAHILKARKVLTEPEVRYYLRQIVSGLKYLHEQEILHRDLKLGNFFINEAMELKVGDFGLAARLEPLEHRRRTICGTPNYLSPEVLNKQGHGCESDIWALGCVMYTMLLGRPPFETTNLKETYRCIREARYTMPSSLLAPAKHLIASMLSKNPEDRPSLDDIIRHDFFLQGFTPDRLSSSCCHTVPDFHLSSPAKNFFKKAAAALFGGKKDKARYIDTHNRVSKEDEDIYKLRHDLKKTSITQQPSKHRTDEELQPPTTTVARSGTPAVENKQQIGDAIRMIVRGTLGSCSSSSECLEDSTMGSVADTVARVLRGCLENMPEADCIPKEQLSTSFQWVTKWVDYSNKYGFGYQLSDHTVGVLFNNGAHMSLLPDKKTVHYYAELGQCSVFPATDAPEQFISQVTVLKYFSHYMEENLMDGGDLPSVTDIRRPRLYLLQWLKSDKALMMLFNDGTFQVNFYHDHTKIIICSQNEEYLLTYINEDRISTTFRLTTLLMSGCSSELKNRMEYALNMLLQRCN
Method in brief: as §1

PKN1 (PRK1) = molecular target: T31, PKN1 (PRK1) (Homo sapiens, UniProt Q16512)
T31 construct: purchased Thermo Fisher Scientific SelectScreen (plus Nanosyn / Reaction Biology for CDK/cyclin lines)
Method in brief: as §1

AMPK (A2/B1/G3) = molecular target: T32, AMPK (A2/B1/G3) (Homo sapiens, UniProt P54646)
T32 construct: purchased Thermo Fisher Scientific SelectScreen (plus Nanosyn / Reaction Biology for CDK/cyclin lines)
Method in brief: as §1

STK4 (MST1) = molecular target: T33, STK4 (MST1) (Homo sapiens, UniProt Q13043)
T33 construct: purchased Thermo Fisher Scientific SelectScreen (plus Nanosyn / Reaction Biology for CDK/cyclin lines)
Method in brief: as §1

MAP2K6 (MKK6) = molecular target: T34, MAP2K6 (MKK6) (Homo sapiens, UniProt P52564)
T34 construct: purchased Thermo Fisher Scientific SelectScreen (plus Nanosyn / Reaction Biology for CDK/cyclin lines)
Method in brief: as §1

ERBB4 (HER4) = molecular target: T35, ERBB4 (HER4) (Homo sapiens, UniProt Q15303)
T35 construct: purchased Thermo Fisher Scientific SelectScreen (plus Nanosyn / Reaction Biology for CDK/cyclin lines)
Method in brief: as §1

CAMK1G (CAMKI gamma) = molecular target: T36, CAMK1G (CAMKI gamma) (Homo sapiens, UniProt Q96NX5)
T36 construct: purchased Thermo Fisher Scientific SelectScreen (plus Nanosyn / Reaction Biology for CDK/cyclin lines)
Method in brief: as §1

PRKX = molecular target: T37, PRKX (Homo sapiens, UniProt P51817)
T37 construct: purchased Thermo Fisher Scientific SelectScreen (plus Nanosyn / Reaction Biology for CDK/cyclin lines)
Method in brief: as §1

NS(=O)(=O)c1ccc(Nc2ncc3cc4n(c3n2)C2(CCCCC2)C(=O)NN4)cc1 [INX-315]
inhibition at 0.1 µM (PRKCD (PKC delta)): -5% | inhibition at 0.1 µM (DCAMKL1 (DCLK1)): 9% | inhibition at 0.1 µM (DYRK1B): 1% | inhibition at 0.1 µM (PTK2B (FAK2)): 5% | inhibition at 0.1 µM (RET A883F): 22% | inhibition at 0.1 µM (PRKCI (PKC iota)): -5% | inhibition at 0.1 µM (MAPK7 (ERK5)): 5% | inhibition at 0.1 µM (LCK): 19% | inhibition at 0.1 µM (CDK18/cyclin Y): 9% | inhibition at 0.1 µM (CSNK1E (CK1 epsilon)): -5% | inhibition at 0.1 µM (CHEK1 (CHK1)): 2% | inhibition at 0.1 µM (MYLK2 (skMLCK)): 4% | inhibition at 0.1 µM (NEK1): -10% | inhibition at 0.1 µM (IKBKE (IKK epsilon)): 10% | inhibition at 0.1 µM (SBK1): 5% | inhibition at 0.1 µM (MET (cMet)): 6% | inhibition at 0.1 µM (SNF1LK2): 18% | inhibition at 0.1 µM (PTK2 (FAK)): 8% | inhibition at 0.1 µM (GRK7): 62% | inhibition at 0.1 µM (ADRBK1 (GRK2)): 0% | inhibition at 0.1 µM (AMPK A2/B1/G1): 5% | inhibition at 0.1 µM (CDK5/p25): 93% | inhibition at 0.1 µM (KDR (VEGFR2)): 42% | inhibition at 0.1 µM (MAPKAPK3): 8% | inhibition at 0.1 µM (EEF2K): 4% | inhibition at 0.1 µM (TXK): 7% | inhibition at 0.1 µM (EPHA8): 16% | inhibition at 0.1 µM (NIM1K): 5% | inhibition at 0.1 µM (CDK5/p35): 87% | inhibition at 0.1 µM (PLK2): 5% | inhibition at 0.1 µM (PKN1 (PRK1)): 7% | inhibition at 0.1 µM (AMPK (A2/B1/G3)): 17% | inhibition at 0.1 µM (STK4 (MST1)): 26% | inhibition at 0.1 µM (MAP2K6 (MKK6)): 3% | inhibition at 0.1 µM (ERBB4 (HER4)): 2% | inhibition at 0.1 µM (CAMK1G (CAMKI gamma)): 0% | inhibition at 0.1 µM (PRKX): 3%

From article PMC10905675, “INX-315, a Selective CDK2 Inhibitor, Induces Cell Cycle Arrest and Senescence in Solid Tumors” (Cancer Discovery, 2023)
